Experimental findings from patent US7105505B2, “Benzimidazole derivatives useful as histamine H3 antagonists” (Schering Corporation, priority 2002, dated 2006) are described below.

In assay [1] the target is T1, human histamine H3 receptor (Homo sapiens, UniProt Q9Y5N1).
T1 construct: expressed in transfected cells
The experiment in a line: rHu H3 Binding Assay (HEK-293 membranes). To be noted: Receptor Source rHu, 1.2 nM [3H]Nα-methylhistamine. The protocol:
General Procedure for rHu H3Binding Assay
[^3H]N^∝-methylhistamine (82 Ci/mmole) was obtained from Dupont NEN. Thioperamide was obtained from the Chemical Research Department, Schering-Plough Research Institute.
HEK-293 human embryonic kidney cells stably expressing the human histamine H3 receptor were cultured in Dulbecco's modified Eagle's medium/10% fetal calf serum/penicillin (100 U/ml)/streptomycin (100 μg/ml)/Geneticin (0.5 mg/ml) at 37° C. in a humidified 5% CO2 atmosphere. Cells were harvested between passages five and twenty at 37° C. in 5 mM EDTA/Hank's balanced salt solution and processed for membrane preparation. After low-speed centrifugation, ten min at 1000×g, they were put into ten volumes of ice-cold buffer and disrupted with a Polytron (PTA 35/2 tip, 30 sec at setting 6). After subsequent low-speed centrifugation, supernatant was centrifuged ten min at 50,000×g. The high-speed pellet was resuspended in the original volume of buffer, a sample was taken for protein assay (bicinchoninic acid, Pierce) and the suspension was centrifuged again at 50,000×g. Membranes were resuspended at 1 mg of protein/ml of buffer and frozen at −80° C. until use.
Membrane (15 μg of protein) was incubated with 1.2 nM [^3H]N^∝-methyl-histamine, without or with inhibitor compounds, in a total volume of 200 μl of buffer. Nonspecific binding was determined in the presence of 10^−5 M thioperamide. Assay mixtures were incubated for 30 min at 30° C. in polypropylene, 96-well, deep-well plates, then filtered through 0.3% polyethylenimine-soaked GF/B filters. These were washed three times with 1.2 ml of 4° C. buffer, dried in a microwave oven, impregnated with Meltilex wax scintillant and counted at 40% efficiency in a Betaplate scintillation counter (Wallac).
IC50 values were interpolated from the data or were determined from curves fit to the data with Prism nonlinear least squares curve-fitting program (GraphPad Software, San Diego, Calif.). Ki values were determined from IC50 values according to the Cheng and Prusoff equation.

The target in assay [2] is T2, H3 receptors (Cavia porcellus, UniProt Q9JI35).
T2 construct: The source of the H3 receptors in this experiment was guinea pig brain; from tissue; host or cells: guinea pig brain membranes
T2 sequence (Q9JI35 whole entry): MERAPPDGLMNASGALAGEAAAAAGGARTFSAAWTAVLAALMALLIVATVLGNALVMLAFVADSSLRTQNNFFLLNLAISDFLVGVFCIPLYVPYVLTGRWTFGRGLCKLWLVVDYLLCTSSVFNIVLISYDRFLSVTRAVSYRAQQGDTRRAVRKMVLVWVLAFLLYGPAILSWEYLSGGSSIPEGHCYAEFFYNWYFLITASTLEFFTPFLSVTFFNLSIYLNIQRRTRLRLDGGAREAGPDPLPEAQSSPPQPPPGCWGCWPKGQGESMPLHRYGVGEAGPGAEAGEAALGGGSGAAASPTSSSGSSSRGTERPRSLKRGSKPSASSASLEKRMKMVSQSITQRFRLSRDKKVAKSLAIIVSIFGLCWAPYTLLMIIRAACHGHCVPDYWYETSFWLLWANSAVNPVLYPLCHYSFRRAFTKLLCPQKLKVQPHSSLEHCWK
The experiment in a line: H3 Receptor Binding Assay (guinea pig brain membranes). To be noted: Receptor Source Guinea pig, [3H]R-α-methyl histamine or [3H]Nα-methyl histamine. On the procedure:
General Procedure for H3Receptor Binding Assay
The source of the H3 receptors in this experiment was guinea pig brain. The animals weighed 400–600 g. The brain tissue was homogenized with a solution of 50 mM Tris, pH 7.5. The final concentration of tissue in the homogenization buffer was 10% w/v. The homogenates were centrifuged at 1,000×g for 10 min. in order to remove clumps of tissue and debris. The resulting supernatants were then centrifuged at 50,000×g for 20 min. in order to sediment the membranes, which were next washed three times in homogenization buffer (50,000×g for 20 min. each). The membranes were frozen and stored at −70° C. until needed.
All compounds to be tested were dissolved in DMSO and then diluted into the binding buffer (50 mM Tris, pH 7.5) such that the final concentration was 2 μg/ml with 0.1% DMSO. Membranes were then added (400 μg of protein) to the reaction tubes. The reaction was started by the addition of 3 nM [^3H]R-α-methyl histamine (8.8 Ci/mmol) or 3 nM [^3H]N^α-methyl histamine (80 Ci/mmol) and continued under incubation at 30° C. for 30 min. Bound ligand was separated from unbound ligand by filtration, and the amount of radioactive ligand bound to the membranes was quantitated by liquid scintillation spectrometry. All incubations were performed in duplicate and the standard error was always less than 10%. Compounds that inhibited more than 70% of the specific binding of radioactive ligand to the receptor were serially diluted to determine a Ki (nM).

T1 sequence (Q9Y5N1 whole entry): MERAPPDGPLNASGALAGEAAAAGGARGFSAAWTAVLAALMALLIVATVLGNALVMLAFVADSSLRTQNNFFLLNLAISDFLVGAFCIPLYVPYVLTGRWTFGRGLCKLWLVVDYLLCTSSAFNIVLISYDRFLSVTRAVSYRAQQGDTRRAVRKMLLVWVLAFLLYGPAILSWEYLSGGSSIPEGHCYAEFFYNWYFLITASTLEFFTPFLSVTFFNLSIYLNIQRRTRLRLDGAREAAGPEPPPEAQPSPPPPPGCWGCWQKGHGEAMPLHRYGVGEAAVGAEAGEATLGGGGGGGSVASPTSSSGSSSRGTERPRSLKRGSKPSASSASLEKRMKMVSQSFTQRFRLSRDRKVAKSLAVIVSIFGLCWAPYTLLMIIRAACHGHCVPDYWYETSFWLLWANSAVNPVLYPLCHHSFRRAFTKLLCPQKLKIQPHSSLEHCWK

In assay [1], `Nc1cc(CN2CCC(C(=O)N3CCC(n4c(-c5ccccn5)nc5cc(F)ccc54)CC3)CC2)ccn1` [Example 1] registered a Ki of 1 nM.

`Nc1cc(CN2CCC(C(=O)N3CCC(c4nc5ccc(Cl)cc5[nH]4)CC3)CC2)ccn1` [Example 3]: the inhibitory constant (Ki) in assay [2] was found to be 13 nM.

With `Nc1ncc(CN2CCC(F)(C(=O)N3CCC(n4c(-c5ccccn5)nc5cccnc54)CC3)CC2)cn1` [Example 5], in assay [1], the Ki is 9 nM.

`Nc1cc(CN2CCC(C(=O)N3CCC(n4c(-c5cc(Cl)cc(Cl)c5)nc5ccc(Cl)cc54)CC3)CC2)ccn1` [Example 54] displayed a Ki in assay [2] of 30 nM.

With `Nc1cc(CN2CCC(C(=O)N3CCC(n4c(-c5ccccn5)nc5cc(F)c(F)cc54)CC3)CC2)ccn1` [Example 71], the affinity in assay [2] corresponds to a Ki of 1 nM.

In the case of `Cc1cc(-c2nc3cc(F)ccc3n2C2CCN(C(=O)C3CCN(Cc4ccnc(N)c4)CC3)CC2)no1` [Example 94], the Ki in assay [2] turned out to be 1 nM.

`CSc1nc2cc(F)ccc2n1C1CCN(C(=O)C2CCN(Cc3ccnc(N)c3)CC2)CC1` [Example 109] showed a Ki in assay [1] of 1 nM.

Consider `Nc1cc(CN2CCC(C(=O)N3CCC(n4c(N5CCOCC5)nc5cc(F)ccc54)CC3)CC2)ccn1` [Example 120], for which the affinity in assay [2] corresponds to a Ki of 0.3 nM.

With `Nc1cc(CN2CCC(F)(C(=O)N3CCC(n4c(N5CCOCC5)nc5cc(F)ccc54)CC3)CC2)ccn1` [Example 165], the Ki in assay [1] was 2 nM.

Compound `Nc1cc(CN2CCC(C(=O)N3CCC(n4c(C5CC5)nc5cccnc54)CC3)CC2)ccn1` [Example 170] registered an inhibitory constant (Ki) in assay [2] of 0.5 nM.

`Nc1cc(CN2CCC(C(=O)N3CCC(n4c(-c5ccc(F)cc5)nc5cccnc54)CC3)CC2)ccn1` [Example 173] had an inhibitory constant (Ki) in assay [2] of 0.4 nM.

`Nc1cc(CN2CCC(C(=O)N3CCC(n4c(-c5cc(-c6ccc(F)cc6)on5)nc5cccnc54)CC3)CC2)ccn1` [Example 195] registered an inhibitory constant (Ki) in assay [2] of 10 nM.

In assay [2], `Nc1ncc(CN2CCC(C(=O)N3CCC(n4c(-c5ccccn5)nc5cc(F)ccc54)CC3)CC2)cn1` [Example 211] displayed an inhibition constant (Ki) of 7 nM.

With `Nc1ncc(CN2CCC(F)(C(=O)N3CCC(n4c(-c5ccc(F)cc5F)nc5cc(F)ccc54)CC3)CC2)cn1` [Example 254], in assay [2], the Ki is 13 nM.

In assay [1], `CSc1nc2cc(F)ccc2n1C1CCN(C(=O)C2CCN(Cc3cnc(N)nc3)CC2)CC1` [Example 269] showed a Ki of 4 nM.

With `CCOc1nc2cc(F)ccc2n1C1CCN(C(=O)C2(F)CCN(Cc3cnc(N)nc3)CC2)CC1` [Example 270], affinity in assay [1] was put at a Ki of 4 nM.

In assay [1], `Nc1ncc(CN2CCC(F)(C(=O)N3CCC(n4c(-c5ccoc5)nc5cccnc54)CC3)CC2)cn1` [Example 281] displayed a Ki of 4 nM.

In assay [1], `CSc1nc2cc(F)ccc2n1C1CCN(C(=O)C2(F)CCN(Cc3cnc(N)nc3)CC2)CC1` [Example 290] yielded a Ki of 3 nM.

Turning to `COc1nc2cc(F)ccc2n1C1CCN(C(=O)C2(F)CCN(Cc3cnc(N)nc3)CC2)CC1` [Example 297], the Ki in assay [1] came out at 4 nM.

Compound `CSc1nc2cccnc2n1C1CCN(C(=O)C2(F)CCN(Cc3cnc(N)nc3)CC2)CC1` [Example 315] came in with a Ki in assay [1] of 5 nM.

Turning to `CCOc1nc2cccnc2n1C1CCN(C(=O)C2(F)CCN(Cc3cnc(N)nc3)CC2)CC1` [Example 316], in assay [1], the Ki worked out at 5 nM.

`CC(C)Oc1nc2cc(F)ccc2n1C1CCN(C(=O)C2(F)CCN(Cc3cnc(N)nc3)CC2)CC1` [Example 326] yielded a Ki in assay [1] of 2 nM.

`Nc1ncc(CN2CCC(F)(C(=O)N3CCC(n4c(-c5cccc[n+]5[O-])nc5cccnc54)CC3)CC2)cn1` [Example 388]: the affinity in assay [1], expressed as Ki, was 30 nM.

For `O=C(N1CCC(n2c(-c3ccccn3)nc3cc(F)ccc32)CC1)C1(F)CCN(Cc2ccnnc2)CC1` [Example 423], the inhibition constant (Ki) in assay [1] was 5 nM.

With `O=C(C1CCN(Cc2cc[nH]n2)CC1)N1CCC(n2c(-c3ccccn3)nc3cc(F)ccc32)CC1` [Example 442], the affinity in assay [1] corresponds to a Ki of 1 nM.

Take `Nc1ncc(CN2CCC(F)(C(=O)N3CCC(n4c(Oc5ccccc5)nc5cc(F)ccc54)CC3)CC2)cn1` [Example 449]: the inhibition constant (Ki) in assay [1] stood at 1 nM.

For `CCCOc1nc2cc(F)ccc2n1C1CCN(C(=O)C2(F)CCN(Cc3cnc(N)nc3)CC2)CC1` [Example 459], the inhibition constant Ki in assay [1] amounted to 4 nM.

For `CCCOc1nc2cc(F)ccc2n1C1CCN(C(=O)C2CCN(Cc3cnc(N)nc3)CC2)CC1` [Example 460], affinity in assay [1] was put at a Ki of 4 nM.

In assay [1], `CCc1nc2cc(F)ccc2n1C1CCN(C(=O)C2(F)CCN(Cc3cnc(N)nc3)CC2)CC1` [Example 468] yielded a Ki of 10 nM.

In turn, `CSc1nc2cc(F)ccc2n1C1CCN(C(=O)C2CCN(Cc3ccnnc3)CC2)CC1` [Example 493] had a Ki in assay [1] of 1 nM.

As for `CSc1nc2cc(Cl)ccc2n1C1CCN(C(=O)C2CCN(Cc3cnc(N)nc3)CC2)CC1` [Example 502], the inhibition constant (Ki) in assay [1] amounted to 7 nM.

The compound `CCOc1nc2cc(F)ccc2n1C1CCN(C(=O)C2CCN(Cc3ccnnc3)CC2)CC1` [Example 512] had an inhibitory constant (Ki) in assay [1] of 2 nM.

`Nc1ncc(CN2CCC(C(=O)N3CCC(n4c(SCc5ccccc5)nc5cc(F)ccc54)CC3)CC2)cn1` [Example 547] displayed a Ki in assay [1] of 14 nM.

On to `CCCOc1nc2cccnc2n1C1CCN(C(=O)C2CCN(Cc3ccnnc3)CC2)CC1` [Example 552], for which the Ki in assay [1] came to 4 nM.

With `O=C(C1CCN(Cc2ccnnc2)CC1)N1CCC(n2c(-c3ccccn3)nc3cc(Cl)ccc32)CC1` [Example 557], in assay [1], the Ki came to 19 nM.

In the case of `COc1nc2cc(F)ccc2n1C1CCN(C(=O)C2CCN(Cc3ccnnc3)CC2)CC1` [Example 571], the affinity in assay [1], expressed as Ki, was 2 nM.

`CSc1nc2cc(F)c(F)cc2n1C1CCN(C(=O)C2(F)CCN(Cc3ccnc(N)c3)CC2)CC1` [Example 574] registered a Ki in assay [1] of 2 nM.

As for `CCSc1nc2cc(C(F)(F)F)ccc2n1C1CCN(C(=O)C2CCN(Cc3cnc(N)nc3)CC2)CC1` [Example 577], in assay [1], the affinity corresponds to a Ki of 44 nM.

Regarding `CCCSc1nc2cccnc2n1C1CCN(C(=O)C2CCN(Cc3ccnnc3)CC2)CC1` [Example 588], the inhibitory constant (Ki) in assay [1] came out at 6 nM.

`CCOc1nc2cc(Cl)ccc2n1C1CCN(C(=O)C2CCN(Cc3ccnnc3)CC2)CC1` [Example 592] returned a Ki in assay [1] of 9 nM.

For the compound `CSc1nc2cc(S(C)(=O)=O)ccc2n1C1CCN(C(=O)C2CCN(Cc3ccnnc3)CC2)CC1` [Example 595], in assay [1], affinity was put at a Ki of 41 nM.

Regarding `CCc1nc2cc(F)ccc2n1C1CCN(C(=O)C2CCN(Cc3cnc(N)nc3)CC2)CC1` [Example 598], the inhibition constant (Ki) in assay [1] was 17 nM.

In assay [1], `Nc1cc(CCCN2CCC(C(=O)N3CCC(n4c(-c5ccccn5)nc5cccnc54)CC3)CC2)ccn1` [Example 608] returned a Ki of 1 nM.

The compound `CCCc1nc2cc(F)ccc2n1C1CCN(C(=O)C2CCN(Cc3cnc(N)nc3)CC2)CC1` [Example 618] came in with an inhibitory constant (Ki) in assay [1] of 9 nM.

On to `CCCc1nc2cc(F)ccc2n1C1CCN(C(=O)C2CCN(Cc3ccnnc3)CC2)CC1` [Example 619], for which the affinity in assay [1] corresponds to a Ki of 2 nM.

In assay [1], `CSc1nc2cc(Cl)ccc2n1C1CCN(C(=O)C2(F)CCN(Cc3cnc(N)nc3)CC2)CC1` [Example 625] gave a Ki of 10 nM.

In assay [1], `CSc1nc2cc(Cl)ccc2n1C1CCN(C(=O)C2CCN(Cc3ccnnc3)CC2)CC1` [Example 628] returned a Ki of 4 nM.
